Assay results as given in BindingDB's records for doi:10.1016/j.bmc.2015.03.045 (Chungnam National University, 2015).
pIC50: −log10 of the molar value.

assay: Inhibition of mouse IL5-mediated mouse Y16 cell proliferation after 48 hrs by WST1 assay

SMILES	pIC50
CC(C)(C)C(=O)OCc1c(C2CCCCC2)oc2ccc(NC(=O)c3ccccc3)cc2c1=O	< 4.52
CC(=O)OCc1c(-c2ccc(F)cc2)oc2ccc(NC(=O)c3ccccc3)cc2c1=O	< 4.52
CC(=O)OCc1c(C2CCCCC2)oc2ccc(NC(=O)C3CCCCC3)cc2c1=O	4.70
CC(=O)OCc1c(C2CCCCC2)oc2ccc(NC(=O)Nc3ccccc3)cc2c1=O	< 4.52
CC(=O)OCc1c(C2CCCCC2)oc2ccc(NS(=O)(=O)c3ccccc3)cc2c1=O	< 4.52
CC(=O)OCc1c(-c2ccccc2)oc2ccc(NC(=O)c3cnccn3)cc2c1=O	< 4.52
O=C(Nc1ccc2oc(-c3ccccc3)c(CO)c(=O)c2c1)c1ccccc1	4.66
O=C(Nc1ccc2oc(-c3ccc(F)cc3)c(CO)c(=O)c2c1)c1ccccc1	< 4.52
O=C(Nc1ccc2oc(C3CCCCC3)c(CO)c(=O)c2c1)C1CCCCC1	< 4.52
O=C(Nc1ccc2oc(-c3ccccc3)c(CO)c(=O)c2c1)C1CCCCC1	< 4.52
O=C(Nc1ccc2oc(-c3ccccc3)c(CO)c(=O)c2c1)c1cnccn1	< 4.52

Compounds with a higher pIC50, results first:

pIC50	SMILES
4.72	CC(=O)OCc1c(C2CCCCC2)oc2ccc(NCc3ccccc3)cc2c1=O
4.72	CC(C)C(=O)OCc1c(C2CCCCC2)oc2ccc(NC(=O)c3ccccc3)cc2c1=O
4.74	CC(=O)OCc1c(-c2ccccc2)oc2ccc(NC(=O)C3CCCCC3)cc2c1=O
4.80	CC(=O)OCc1c(-c2ccccc2)oc2ccc(NC(=O)c3ccccc3)cc2c1=O
5.00	O=C(Nc1ccc2oc(C3CCCCC3)c(CO)c(=O)c2c1)c1ccccc1
5.21	CC(=O)OCc1c(C2CCCCC2)oc2ccc(NC(=O)c3ccccc3)cc2c1=O
